ChEMBL document CHEMBL1201862, “PubChem BioAssay data set” (2004)
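96-well plates; 48 h exposure; 5 concentrations. Endpoints by linear interpolation between flanking doses. Not reached: highest tested concentration assigned. Here, GI50 denotes the concentration required for 50% inhibition of growth.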 Active and inactive are the calls of the source. Rule as the data show it: active = GI50 up to about 1.1 µM and inactive = higher.

How the values were obtained:
Assay in all cases: NCI-60 cell line screen, 48 h
KM12 = system: KM12
M14 = system: M14
COLO 205 = system: COLO 205
SF-268 = system: SF-268
SR = system: SR
PC-3 = system: PC-3
MOLT-4 = system: MOLT-4
ACHN = system: ACHN
DU-145 = system: DU-145
RXF 393 = system: RXF 393
MDA-N = system: MDA-N
SK-MEL-28 = system: SK-MEL-28
HOP-62 = system: HOP-62
SNB-19 = system: SNB-19
HL-60 = system: HL-60
K562 = system: K562
OVCAR-5 = system: OVCAR-5
A498 = system: A498
LOX IMVI = system: LOX IMVI
SK-OV-3 = system: SK-OV-3
CAKI-1 = system: CAKI-1
SF-295 = system: SF-295
MCF7 = system: MCF7
U-251 = system: U-251
SNB-75 = system: SNB-75
MDA-MB-231 = system: MDA-MB-231
NCI/ADR-RES = system: NCI/ADR-RES
786-0 = system: 786-0
SF-539 = system: SF-539
OVCAR-3 = system: OVCAR-3
HCT-116 = system: HCT-116
NCI-H522 = system: NCI-H522
SW-620 = system: SW-620
IGROV-1 = system: IGROV-1
Malme-3M = system: Malme-3M
A549 = system: A549
CCRF-CEM = system: CCRF-CEM
BT-549 = system: BT-549
OVCAR-8 = system: OVCAR-8
SK-MEL-5 = system: SK-MEL-5
SK-MEL-2 = system: SK-MEL-2
SN12C = system: SN12C
OVCAR-4 = system: OVCAR-4
EKVX = system: EKVX
RPMI-8226 = system: RPMI-8226
UACC-62 = system: UACC-62
HOP-92 = system: HOP-92
HCT-15 = system: HCT-15
NCI-H23 = system: NCI-H23
NCI-H226 = system: NCI-H226
MDA-MB-435 = system: MDA-MB-435
HT-29 = system: HT-29
UO-31 = system: UO-31
Hs-578T = system: Hs-578T
T47D = system: T47D
NCI-H460 = system: NCI-H460
UACC-257 = system: UACC-257
TK-10 = system: TK-10

How did the GI50 (KM12) turn out when O=C(N/N=C/c1ccc([N+](=O)[O-])o1)c1ccc(C(=O)N/N=C/c2ccc([N+](=O)[O-])o2)cc1 was run?
The GI50 was 28.5 µM (inactive).

What about the GI50 (M14) of the same compound?
The GI50 was 35.5 µM (inactive).

What about the GI50 (COLO 205) of the same compound?
Its GI50 is 28.1 µM (inactive).

What about the GI50 (SF-268) of the same compound?
Its GI50 is 64.7 µM (inactive).

What about the GI50 (SR) of the same compound?
The GI50 was 29.8 µM (inactive).

And the GI50 (PC-3)?
The GI50 was 64.7 µM (inactive).

What about the GI50 (MOLT-4) of the same compound?
Its GI50 is 23.8 µM (inactive).

What about the GI50 (ACHN) of the same compound?
Its GI50 is 10.2 µM (inactive).

And the GI50 (DU-145)?
Its GI50 is 64.4 µM (inactive).

What about the GI50 (RXF 393) of the same compound?
Its GI50 is 36.6 µM (inactive).

And the GI50 (MDA-N)?
Its GI50 is 20.7 µM (inactive).

What about the GI50 (SK-MEL-28) of the same compound?
Its GI50 is 13.2 µM (inactive).

What about the GI50 (HOP-62) of the same compound?
Its GI50 is 47.8 µM (inactive).

What about the GI50 (SNB-19) of the same compound?
Its GI50 is 51.4 µM (inactive).

And the GI50 (HL-60)?
The GI50 was 21.7 µM (inactive).

What about the GI50 (K562) of the same compound?
The GI50 was 34.4 µM (inactive).

What about the GI50 (OVCAR-5) of the same compound?
Its GI50 is > 100 µM (inactive).

What about the GI50 (A498) of the same compound?
Its GI50 is 8.87 µM (inactive).

What about the GI50 (LOX IMVI) of the same compound?
The GI50 was 34.2 µM (inactive).

What about the GI50 (SK-OV-3) of the same compound?
Its GI50 is > 100 µM (inactive).

What about the GI50 (CAKI-1) of the same compound?
The GI50 was 35.4 µM (inactive).

And the GI50 (SF-295)?
The GI50 was 40.4 µM (inactive).

And the GI50 (MCF7)?
The GI50 was 15.7 µM (inactive).

And the GI50 (U-251)?
Its GI50 is 50.2 µM (inactive).

What about the GI50 (SNB-75) of the same compound?
Its GI50 is > 100 µM (inactive).

What about the GI50 (MDA-MB-231) of the same compound?
Its GI50 is > 100 µM (inactive).

And the GI50 (NCI/ADR-RES)?
Its GI50 is 73.3 µM (inactive).

What about the GI50 (786-0) of the same compound?
Its GI50 is 76.2 µM (inactive).

What about the GI50 (SF-539) of the same compound?
The GI50 was 14.9 µM (inactive).

What about the GI50 (OVCAR-3) of the same compound?
The GI50 was 26.1 µM (inactive).

What about the GI50 (HCT-116) of the same compound?
The GI50 was 30.1 µM (inactive).

What about the GI50 (NCI-H522) of the same compound?
Its GI50 is 48.3 µM (inactive).

What about the GI50 (SW-620) of the same compound?
The GI50 was 22.4 µM (inactive).

And the GI50 (IGROV-1)?
Its GI50 is 30.7 µM (inactive).

What about the GI50 (Malme-3M) of the same compound?
The GI50 was 21.2 µM (inactive).

What about the GI50 (A549) of the same compound?
The GI50 was 45.5 µM (inactive).

And the GI50 (CCRF-CEM)?
The GI50 was 14.8 µM (inactive).

And the GI50 (BT-549)?
Its GI50 is > 100 µM (inactive).

And the GI50 (OVCAR-8)?
The GI50 was 28.4 µM (inactive).

And the GI50 (SK-MEL-5)?
Its GI50 is 22.6 µM (inactive).

What about the GI50 (SK-MEL-2) of the same compound?
Its GI50 is 74.5 µM (inactive).

What about the GI50 (SN12C) of the same compound?
The GI50 was 42.8 µM (inactive).

What about the GI50 (OVCAR-4) of the same compound?
The GI50 was 45 µM (inactive).

What about the GI50 (EKVX) of the same compound?
Its GI50 is > 100 µM (inactive).

And the GI50 (RPMI-8226)?
The GI50 was 2.55 µM (inactive).

And the GI50 (UACC-62)?
The GI50 was 13.8 µM (inactive).

And the GI50 (HOP-92)?
Its GI50 is 53.8 µM (inactive).

What about the GI50 (HCT-15) of the same compound?
Its GI50 is 29.8 µM.

What about the GI50 (NCI-H23) of the same compound?
Its GI50 is 42.3 µM (inactive).

What about the GI50 (NCI-H226) of the same compound?
Its GI50 is > 100 µM (inactive).

And the GI50 (MDA-MB-435)?
Its GI50 is 16.2 µM (inactive).

What about the GI50 (HT-29) of the same compound?
Its GI50 is 38.6 µM (inactive).

And the GI50 (UO-31)?
Its GI50 is > 100 µM (inactive).

And the GI50 (Hs-578T)?
The GI50 was > 100 µM (inactive).

And the GI50 (T47D)?
The GI50 was 41.3 µM (inactive).

What does the source list for CC(C)C(=O)CP(=O)(O)O?
GI50 (KM12): > 100 µM (inactive); GI50 (M14): > 100 µM (inactive); GI50 (COLO 205): > 100 µM (inactive); GI50 (SF-268): > 100 µM (inactive); GI50 (SR): > 100 µM (inactive); GI50 (PC-3): > 100 µM (inactive); GI50 (MOLT-4): > 100 µM (inactive); GI50 (ACHN): > 100 µM (inactive); GI50 (DU-145): > 100 µM (inactive); GI50 (RXF 393): > 100 µM (inactive); GI50 (MDA-N): > 100 µM (inactive); GI50 (SK-MEL-28): > 100 µM (inactive); GI50 (HOP-62): > 100 µM (inactive); GI50 (SNB-19): > 100 µM (inactive); GI50 (HL-60): > 100 µM (inactive); GI50 (K562): > 100 µM (inactive); GI50 (OVCAR-5): > 100 µM (inactive); GI50 (NCI-H460): > 100 µM (inactive); GI50 (A498): > 100 µM (inactive); GI50 (LOX IMVI): > 100 µM (inactive); GI50 (SK-OV-3): > 100 µM (inactive); GI50 (CAKI-1): > 100 µM (inactive); GI50 (SF-295): > 100 µM (inactive); GI50 (MCF7): > 100 µM (inactive); GI50 (U-251): > 100 µM (inactive); GI50 (SNB-75): > 100 µM (inactive); GI50 (MDA-MB-231): > 100 µM (inactive); GI50 (NCI/ADR-RES): > 100 µM (inactive); GI50 (786-0): > 100 µM (inactive); GI50 (SF-539): > 100 µM (inactive); GI50 (OVCAR-3): > 100 µM (inactive); GI50 (HCT-116): > 100 µM (inactive); GI50 (NCI-H522): > 100 µM (inactive); GI50 (SW-620): > 100 µM (inactive); GI50 (IGROV-1): > 100 µM (inactive); GI50 (Malme-3M): > 100 µM (inactive); GI50 (A549): > 100 µM (inactive); GI50 (CCRF-CEM): > 100 µM (inactive); GI50 (BT-549): > 100 µM (inactive); GI50 (OVCAR-8): > 100 µM (inactive); GI50 (SK-MEL-5): > 100 µM (inactive); GI50 (SK-MEL-2): > 100 µM (inactive); GI50 (UACC-257): > 100 µM (inactive); GI50 (SN12C): > 100 µM (inactive); GI50 (TK-10): > 100 µM (inactive); GI50 (OVCAR-4): > 100 µM (inactive); GI50 (EKVX): 23.4 µM (inactive); GI50 (RPMI-8226): > 100 µM (inactive); GI50 (UACC-62): > 100 µM (inactive); GI50 (HOP-92): > 100 µM (inactive); GI50 (HCT-15): > 100 µM; GI50 (NCI-H23): > 100 µM (inactive); GI50 (NCI-H226): > 100 µM (inactive); GI50 (MDA-MB-435): > 100 µM (inactive); GI50 (HT-29): > 100 µM (inactive); GI50 (Hs-578T): > 100 µM (inactive); GI50 (T47D): > 100 µM (inactive)
